Measured values taken from patent publication US20090175905A1, “TRANSFECTION REAGENT AND METHOD FOR ENHANCING TRANSFECTION EFFICIENCY” (National Taiwan University of Science and Technology, priority 2008, published 2009).

Legend:
[1] = test system: Chinese hamster ovary (CHO) cells; assay: In vitro transfection of CHO cells with pEGFP-C1 plasmid and DOTAP liposomes plus disaccharides, GFP by flow cytometer; type: cell-based; settings: DOTAP liposomes; for effect on transfection efficiency: appropriate amount of disaccharide
Description: FIG. 2 present the effects of disaccharides on the transgene expression of cultured Chinese hamster ovary (CHO) cells subjected to an in vitro transfection of DNA with a transfection reagent containing DOTAP and various disaccharides. The x-axis in FIG. 2 refers to the disaccharide concentration in the transfection reagent, and the y-axis in FIG. 2 represents the GFP (green fluorescent protein)-positive percentage of the transfected CHO cells measured by a flow cytometer. The GFP-positive percentage of the CHO cells is used as an indicator of transfection efficiency. In the experiments shown in FIG. 2, various concentrations of cellobiose, lactose, sucrose, trehalose and maltose are respectively incorporated into a transfection reagent containing pEGFP-C1 plasmid and DOTAP liposomes, and in vitro transfections are performed with the transfection reagents containing different disaccharides. The GFP-positive percentage of CHO cells is then detected for each transfection reagent sample. […] In other words, the incorporation of a disaccharide into the transfection reagent affects the transfection efficiency. Moreover, the changes in transfection efficiency are related to the type and the concentration of the disaccharide in the transfection reagent. […] More particularly, the transfection efficiency increases from 28% to more than 40% at 180 mM of lactose, sucrose or trehalose in a transfection reagent. The transfection efficiency is doubled when 120 mM of cellobiose is incorporated into a transfection reagent.

[2] = test system: Chinese hamster ovary (CHO) cells; assay: In vitro transfection of CHO cells with different lipid-based vectors plus disaccharides, GFP-positive percentage; type: cell-based; settings: 120 mM disaccharide; DOTAP, DOTAP/Chol, DOTAP/DOPE, DC-Chol/DOPE or LPD vector
Description: FIGS. 3A and 3B present the effects of disaccharides on the transgene expression of cultured Chinese hamster ovary (CHO) cells subjected to an in vitro transfection of DNA with a transfection reagent containing different lipid-based vectors plus different disaccharides. The x-axis in FIGS. 3A and 3B represents the lipid composition, and the y-axis represents the GFP-positive percentage of the transfected CHO cells, which is used as an indicator for transfection efficiency. In the experiments shown in FIGS. 3A and 3B, DOTAP, DOTAP/Chol, DOTAP/DOPE, DC-Chol/DOPE or LPD applied as a vector is incorporated into a pEGFP-C1 plasmid-containing transfection reagent. Thereafter, 120 mM of various disaccharides is incorporated into the transfection reagent, and in vitro cell transfection is performed followed by detecting the cell percentage of GFP expression.

lung tissues = assay: In vivo transfection by tail vein injection of gWiz-luciferase plasmid with lipid-based vectors plus disaccharides, luciferase activity in lung; design: species or system mouse
Method: FIG. 4A presents the effects of disaccharides on the transgene expression after intravenous injection of DOTAP-based vectors with various disaccharides by way of mouse tail vein. Various concentrations of […] and […] are respectively incorporated into the transfection reagent containing the gWiz-luciferase plasmid and DOTAP liposomes. The transfection reagent is administered via intravenous injection through the tail vein of a 4-6 weeks old ICR (CD-1) […]. The […] is sacrificed 24 hour after the intravenous injection, and the activity of luciferase in the lung tissues of the […] is observed. The x-axis in FIG. 4A represents the disaccharide concentration in the tranfection reagent, and the y-axis in FIG. 4 represents the luminescent intensity, measured by a luminometer and expressed as relative light unit (RLU) per mg of lung tissue protein. The luminescent intensity is used as an indicator of transfection efficiency. […] Accordingly, cellobiose and trehalose can improve the efficiency of cell transfection in vivo, and the transfection efficiency increases as the concentration of the disaccharide increases. FIG. 4B presents the effects of disaccharides on the transgene expression after intravenous injection of different lipid-based vectors with various disaccharides by way of mouse tail vein. DOTAP, DOTAP/chol and LPD are respectively added as a vector into the tranfection reagent containing gWiz-luciferase plasmid. A concentration of 330 mM cellobiose or trehalsoe is incorporated into the transfection reagent. The transfection reagent is then intravenously injected into the animal for cell transfection. The x-axis in FIG. 4B represents the type of the lipid-based vector, and the y-axis in FIG. 4B represents the luminescent intensity, measured by a luminometer and expressed as relative light unit (RLU) per mg of lung tissue protein.

mouse muscles = assay: In vivo transfection of muscles by direct intramuscular injection of naked plasmid plus disaccharides, luciferase luminescence; settings: naked plasmid, 10 mM disaccharide
Method: The following experiments are conducted using naked nucleic acid delivery system for directly transfecting plasmid DNA into the cells of animals, and additional viral or non-viral vector is precluded. The transfection reagent is incorporated with various concentrations of disaccharides as an enhancer, and the effects of disaccharides in the naked nucleic acid delivery system on the cell transfection are observed.
FIG. 9 presents the effects of various disaccharides on the transgene expression of mouse muscles after direct intramuscular injection of naked plasmid. The transfection procedures in these experiments are identical to those described previously in experiment 3. The major differences between the two experiments are the vector applied and the method of transfection as well as the administration route into the body of the […]. The x-axis in FIG. 9 represents the types of disaccharides, and the y-axis represents the luminescent intensity, measured by a luminometer and expressed as relative light unit (RLU) per mg of muscular tissue protein, wherein the luminescent intensity is used as an indicator to evaluate the transfection efficiency.
FIG. 10 presents the effects of trehalose concentrations on the transgene expression of mouse muscles after direct intramuscular injection of naked plasmid. The x-axis in FIG. 10 represents the concentrations of trehalose in the transfection reagent, and the y-axis represents the luminescent intensity, measured by a luminometer and expressed as relative light unit (RLU) per mg of muscular tissue protein. The luminescent intensity is used as an indicator to evaluate transfection efficiency.
[…] presents the effects of gene dosage on the transgene expression of mouse muscles in the presence of trehalose after direct intramuscular injection of naked plasmid. The x-axis in FIG. 11 represents the amount of DNA plasmid, and the y-axis represents the luminescent intensity, measured by a luminometer and expressed as relative light unit (RLU) per mg of muscular tissue protein, wherein the luminescent intensity is used as an indicator to evaluate the transfection efficiency.
FIG. 12 presents the effects of the trehalose on the durations of transgene expression of mouse muscles after direct intramuscular injection of naked plasmid. The x-axis in FIG. 12 represents the days after the intramuscular injection, and the y-axis represents the luminescent intensity, measured by a luminometer and expressed as relative light unit (RLU) per mg of muscular tissue protein, wherein the luminescent intensity is used as an indicator to evaluate the transfection efficiency of gWiz-luciferase plasmid. […] In other words, trehalose might extend the durations of nucleic acid remaining inside the cells, and therefore prolonged the durations of transgene expression.

[3] = DOTAP liposomes, i.v. tail vein, 24 hour, 330 mM disaccharide

| SMILES | effect on transfection efficiency [1] | cellular viability analyzed by the MTT assay (CHO cells) | effect on transfection efficiency (GFP-positive percentage) [2] | change of transfection efficiency ([1]; 120 mM cellobiose) | effect on transfection efficiency (luminescent intensity, lung) (lung tissues; 330 mM disaccharide, DOTAP, DOTAP/Chol or LPD vector, i.v.) | luminescent intensity in the lung tissue (RLU per mg of lung tissue protein) (lung tissues; DOTAP liposomes, i.v. tail vein, 24 hour, 180 mM disaccharide) | increase of luciferase expression of lung (lung tissues; [3]) | luminescent intensity in the lung tissue (RLU per mg of lung tissue protein) (lung tissues; [3]) | luminescent intensity (RLU per mg of muscular tissue protein) versus control group without disaccharides (mouse muscles) |
| --- | --- | --- | --- | --- | --- | --- | --- | --- | --- |
| OC[C@H]1O[C@H](O[C@H]2[C@H](O)[C@@H](O)[C@H](O)O[C@@H]2CO)[C@H](O)[C@@H](O)[C@@H]1O [maltose] | increases significantly | improve the cellular viabilities | – | – | – | – | – | – | – |
| OC[C@H]1O[C@@](CO)(O[C@H]2O[C@H](CO)[C@@H](O)[C@H](O)[C@H]2O)[C@@H](O)[C@@H]1O [sucrose] | increases significantly | improve the cellular viabilities | significantly enhances the transfection efficiency | – | – | – | – | – | – |
| O=C[C@H](O)[C@@H](O)[C@H](O[C@@H]1O[C@H](CO)[C@@H](O)[C@H](O)[C@H]1O)[C@H](O)CO [cellobiose] | increases significantly | improve the cellular viabilities | significantly enhances the transfection efficiency | doubled | significant increase in transfection efficiency | increase the luminescent intensity significantly | more than 10 fold | increases noticeably | – |
| OC[C@H]1O[C@@H](O[C@H]2[C@H](O)[C@@H](O)C(O)O[C@@H]2CO)[C@H](O)[C@@H](O)[C@H]1O (some centres unmarked) [lactose] | increases significantly | improve the cellular viabilities | significantly enhances the transfection efficiency | – | – | – | – | – | higher luminescent intensity |
